Test system: participants with SSc-RP
Test: Frequency of weekly RP attacks (all attacks; primary efficacy endpoint)
Type: in vivo, human
Excerpt: Percent change from baseline evaluation for frequency of weekly RP attacks were or will be used as the primary efficacy variable. The sponsor-developed participant-informed diary will be used to record data. Frequency of weekly RP attacks is defined as the total number of RP attacks divided by the number of days with available diary data within the last 7 days of each dosing period then multiplied by 7. Total number of RP attacks during the last 7 days of screening period divided by the number of days with available data then multiplied by 7 will be used as baseline for the analysis of all periods. The variable will be calculated as follows:
Percentage change={(weekly RP attacks for the last 7 days of each dosing period−Baseline weekly RP attacks)/Baseline weekly RP attacks}*100%.
Absolute change=weekly RP attacks for the last 7 days of each dosing period−Baseline weekly RP attacks
Percent change from baseline evaluation for frequency of weekly RP attacks was and will be the primary efficacy endpoint. Frequency of weekly RP attacks is defined as the total number of RP attacks divided by the number of days with available diary data within the last 7 days of each dosing period then multiplied by 7. Total number of RP attacks during the last 7 days of screening period divided by the number of days with available data then multiplied by 7 will be used as baseline for the analysis of all periods.
Percent change from baseline evaluation for frequency of weekly RP attacks were the primary efficacy endpoint. Data collected in the last 7 days of each dosing period were used for this analysis. Screening assessments were used as baseline for the analysis of all periods. No multiple comparison adjustment were used to control alpha for the multiple comparisons. Mixed effects model were used for analysis of the primary endpoint according to the crossover design. Other efficacy endpoints of continuous variables were analyzed using similar methodology. For nominal data, chi-square tests were applied. Generalized Estimating Equations method were used, as appropriate, for adjusting for potential confounding factors. In addition, the final analysis assessed whether in this study of severe Raynaud's disease participants, the minimally important difference, previously concluded of 14-15 points on the 100 point RCS scale had been achieved in the cilnidipine dose group. It also recorded the percentage of participants achieving a PASS (34 point difference from baseline on a 0-100 VAS) in each treatment group.

[1] = Tadalafil 5 mg, n=1, Excluding Outliers, by Baseline RCS, second subgroup, ITT Part A
[2] = all attacks, excluding outliers, cilnidipine 10 mg, tadalafil 5 mg daily
[3] = all attacks, by baseline RCS, second subgroup, cilnidipine 10 mg, tadalafil 5 mg daily
[4] = all attacks, cilnidipine 10 mg, tadalafil 5 mg daily

CN1CC(=O)N2[C@H](c3ccc4c(c3)OCO4)c3[nH]c4ccccc4c3C[C@@H]2C1=O [Tadalafil, tadalafil]
Weekly RP Attacks (All Attacks) Change from Baseline, Mean [1]: 6.00
Weekly RP Attacks (All Attacks) Change from Baseline, Median [1]: 6.00
Weekly RP Attacks (All Attacks) Percent Change from Baseline, Mean [1]: 46.15%
Weekly RP Attacks (All Attacks) Percent Change from Baseline, Median [1]: 46.15%
Weekly RP Attacks (All Attacks), Mean [1]: 19.00
Weekly RP Attacks (All Attacks), Median [1]: 19.00
Weekly RP Attacks Change from Baseline, Max [2]: 6.0, 6.0
Weekly RP Attacks Change from Baseline, Mean (SD) [2]: 6.00
Weekly RP Attacks Change from Baseline, Median [2]: 6.00
Weekly RP Attacks Change from Baseline, Min [2]: 6.0, 6.0
Weekly RP Attacks Change from Baseline, Q1 [2]: 6.00, 6.00
Weekly RP Attacks Change from Baseline, Q3 [2]: 6.00, 6.00
Weekly RP Attacks Percent Change from Baseline, Max [2]: 46.2, 46.2%
Weekly RP Attacks Percent Change from Baseline, Mean (SD) [2]: 46.15%
Weekly RP Attacks Percent Change from Baseline, Median [2]: 46.15%
Weekly RP Attacks Percent Change from Baseline, Min [2]: 46.2, 46.2%
Weekly RP Attacks Percent Change from Baseline, Q1 [2]: 46.15, 46.15%
Weekly RP Attacks Percent Change from Baseline, Q3 [2]: 46.15, 46.15%
Weekly RP Attacks, Max [2]: 19.0, 19.0
Weekly RP Attacks, Mean (SD) [2]: 19.00
Weekly RP Attacks, Median [2]: 19.00
Weekly RP Attacks, Min [2]: 19.0, 19.0
Weekly RP Attacks, Q1 [2]: 19.00, 19.00
Weekly RP Attacks, Q3 [2]: 19.00, 19.00
Weekly RP Attacks Change from Baseline, Max [3]: 6.0
Weekly RP Attacks Change from Baseline, Mean [3]: 3.00
Weekly RP Attacks Change from Baseline, Median [3]: 3.00
Weekly RP Attacks Change from Baseline, Min [3]: 0.0
Weekly RP Attacks Change from Baseline, Q1 [3]: 0.00
Weekly RP Attacks Change from Baseline, Q3 [3]: 6.00
Weekly RP Attacks Percent Change from Baseline, Max [3]: 46.2%
Weekly RP Attacks Percent Change from Baseline, Mean [3]: 23.08%
Weekly RP Attacks Percent Change from Baseline, Median [3]: 23.08%
Weekly RP Attacks Percent Change from Baseline, Min [3]: 0.0%
Weekly RP Attacks Percent Change from Baseline, Q1 [3]: 0.00%
Weekly RP Attacks Percent Change from Baseline, Q3 [3]: 46.15%
Weekly RP Attacks, Max [3]: 19.0
Weekly RP Attacks, Mean [3]: 13.00
Weekly RP Attacks, Median [3]: 13.00
Weekly RP Attacks, Min [3]: 7.0
Weekly RP Attacks, Q1 [3]: 7.00
Weekly RP Attacks, Q3 [3]: 19.00
Weekly RP Attacks Change from Baseline, Max [4]: 6.0
Weekly RP Attacks Change from Baseline, Mean (SD) [4]: 3.00 (4.243)
Weekly RP Attacks Change from Baseline, Median [4]: 3.00
Weekly RP Attacks Change from Baseline, Min [4]: 0.0
Weekly RP Attacks Change from Baseline, Q1 [4]: 0.00
Weekly RP Attacks Change from Baseline, Q3 [4]: 6.00
Weekly RP Attacks Percent Change from Baseline, Max [4]: 46.2%
Weekly RP Attacks Percent Change from Baseline, Mean (SD) [4]: 23.08 (32.636) Percent
Weekly RP Attacks Percent Change from Baseline, Median [4]: 23.08%
Weekly RP Attacks Percent Change from Baseline, Min [4]: 0.0%
Weekly RP Attacks Percent Change from Baseline, Q1 [4]: 0.00%
Weekly RP Attacks Percent Change from Baseline, Q3 [4]: 46.15%
Weekly RP Attacks, Max [4]: 19.0
Weekly RP Attacks, Mean (SD) [4]: 13.00 (8.485)
Weekly RP Attacks, Median [4]: 13.00
Weekly RP Attacks, Min [4]: 7.0
Weekly RP Attacks, Q1 [4]: 7.00
Weekly RP Attacks, Q3 [4]: 19.00
